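Method: 48-hour compound exposure of cells in 96-well plates, five concentrations, linear interpolation of endpoints. GI50 marks 50% less growth. TGI: total growth inhibition.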
Columns and labels:
Assay in all cases: NCI-60 cell line screen, 48 h
SK-MEL-5 melanoma = tested on: SK-MEL-5 melanoma
SK-OV-3 ovarian = tested on: SK-OV-3 ovarian
786-0 renal = tested on: 786-0 renal
EKVX NSCLC = tested on: EKVX NSCLC
SR leukemia = tested on: SR leukemia
SF-539 CNS = tested on: SF-539 CNS
HCC-2998 colon = tested on: HCC-2998 colon
OVCAR-3 ovarian = tested on: OVCAR-3 ovarian
HCT-15 colon = tested on: HCT-15 colon
K-562 leukemia = tested on: K-562 leukemia
SW-620 colon = tested on: SW-620 colon
SK-MEL-2 melanoma = tested on: SK-MEL-2 melanoma
MDA-MB-231 breast = tested on: MDA-MB-231 breast
TK-10 renal = tested on: TK-10 renal
A549 NSCLC = tested on: A549 NSCLC
OVCAR-5 ovarian = tested on: OVCAR-5 ovarian
OVCAR-8 ovarian = tested on: OVCAR-8 ovarian
CAKI-1 renal = tested on: CAKI-1 renal
DU-145 prostate = tested on: DU-145 prostate
RXF 393 renal = tested on: RXF 393 renal
SN12C renal = tested on: SN12C renal
U251 CNS = tested on: U251 CNS
RPMI-8226 leukemia = tested on: RPMI-8226 leukemia
ACHN renal = tested on: ACHN renal
LOX IMVI melanoma = tested on: LOX IMVI melanoma
HS 578T breast = tested on: HS 578T breast
MOLT-4 leukemia = tested on: MOLT-4 leukemia
HL-60(TB) leukemia = tested on: HL-60(TB) leukemia
OVCAR-4 ovarian = tested on: OVCAR-4 ovarian
HOP-92 NSCLC = tested on: HOP-92 NSCLC
MDA-MB-435 = tested on: MDA-MB-435
SF-268 CNS = tested on: SF-268 CNS
SK-MEL-28 melanoma = tested on: SK-MEL-28 melanoma
UACC-257 melanoma = tested on: UACC-257 melanoma
HT29 colon = tested on: HT29 colon
MCF7 breast = tested on: MCF7 breast
HCT-116 colon = tested on: HCT-116 colon
SF-295 CNS = tested on: SF-295 CNS
SNB-19 CNS = tested on: SNB-19 CNS
PC-3 prostate = tested on: PC-3 prostate
NCI/ADR-RES ovarian = tested on: NCI/ADR-RES ovarian
IGROV1 ovarian = tested on: IGROV1 ovarian
CCRF-CEM leukemia = tested on: CCRF-CEM leukemia
HOP-62 NSCLC = tested on: HOP-62 NSCLC
KM12 colon = tested on: KM12 colon
NCI-H460 lung = tested on: NCI-H460 lung
COLO 205 colon = tested on: COLO 205 colon
UO-31 renal = tested on: UO-31 renal
MALME-3M melanoma = tested on: MALME-3M melanoma
UACC-62 melanoma = tested on: UACC-62 melanoma
SNB-75 CNS = tested on: SNB-75 CNS
M14 melanoma = tested on: M14 melanoma
BT-549 breast = tested on: BT-549 breast
NCI-H23 lung = tested on: NCI-H23 lung
NCI-H522 lung = tested on: NCI-H522 lung
T-47D breast = tested on: T-47D breast
NCI-H226 lung = tested on: NCI-H226 lung
A498 renal = tested on: A498 renal

With `COc1cc(-n2cc(-c3ccc(Cl)c(Cl)c3)nc2SCc2ccccc2)cc(OC)c1OC` the GI50 (SK-MEL-5 melanoma) was over 100 µM, the TGI (SK-MEL-5 melanoma) was over 100 µM and the GI50 (SK-OV-3 ovarian) was over 100 µM. The TGI (SK-OV-3 ovarian) was over 100 µM, the GI50 (786-0 renal) was over 100 µM and the TGI (786-0 renal) was over 100 µM. The GI50 (EKVX NSCLC) was over 100 µM, the TGI (EKVX NSCLC) was over 100 µM and the GI50 (SR leukemia) was over 100 µM. For the same compound, the TGI (SR leukemia) was over 100 µM, the GI50 (SF-539 CNS) was over 100 µM and the TGI (SF-539 CNS) was over 100 µM. For the same compound, the GI50 (HCC-2998 colon) was over 100 µM, the TGI (HCC-2998 colon) was over 100 µM and the GI50 (OVCAR-3 ovarian) was over 100 µM. It also gave a TGI (OVCAR-3 ovarian) of over 100 µM, a GI50 (HCT-15 colon) of over 100 µM and a TGI (HCT-15 colon) of over 100 µM. The GI50 (K-562 leukemia) was over 100 µM, the TGI (K-562 leukemia) was over 100 µM and the GI50 (SW-620 colon) was over 100 µM. The TGI (SW-620 colon) was over 100 µM, the GI50 (SK-MEL-2 melanoma) was over 100 µM and the TGI (SK-MEL-2 melanoma) was over 100 µM. The GI50 (MDA-MB-231 breast) was over 100 µM, the TGI (MDA-MB-231 breast) was over 100 µM and the GI50 (TK-10 renal) was over 100 µM. For the same compound, the TGI (TK-10 renal) was over 100 µM, the GI50 (A549 NSCLC) was over 100 µM and the TGI (A549 NSCLC) was over 100 µM. The GI50 (OVCAR-5 ovarian) was over 100 µM, the TGI (OVCAR-5 ovarian) was over 100 µM and the GI50 (OVCAR-8 ovarian) was over 100 µM. It also gave a TGI (OVCAR-8 ovarian) of over 100 µM, a GI50 (CAKI-1 renal) of over 100 µM and a TGI (CAKI-1 renal) of over 100 µM. It also gave a GI50 (DU-145 prostate) of over 100 µM, a TGI (DU-145 prostate) of over 100 µM and a GI50 (RXF 393 renal) of 92.5 µM. It also gave a TGI (RXF 393 renal) of over 100 µM, a GI50 (SN12C renal) of over 100 µM and a TGI (SN12C renal) of over 100 µM. It also gave a GI50 (U251 CNS) of over 100 µM, a TGI (U251 CNS) of over 100 µM and a GI50 (RPMI-8226 leukemia) of over 100 µM. It also gave a TGI (RPMI-8226 leukemia) of over 100 µM, a GI50 (ACHN renal) of over 100 µM and a TGI (ACHN renal) of over 100 µM. For the same compound, the GI50 (LOX IMVI melanoma) was over 100 µM, the TGI (LOX IMVI melanoma) was over 100 µM and the GI50 (HS 578T breast) was over 100 µM. The TGI (HS 578T breast) was over 100 µM, the GI50 (MOLT-4 leukemia) was 55.9 µM and the TGI (MOLT-4 leukemia) was over 100 µM. The GI50 (HL-60(TB) leukemia) was over 100 µM, the TGI (HL-60(TB) leukemia) was over 100 µM and the GI50 (OVCAR-4 ovarian) was over 100 µM. For the same compound, the TGI (OVCAR-4 ovarian) was over 100 µM, the GI50 (HOP-92 NSCLC) was over 100 µM and the TGI (HOP-92 NSCLC) was over 100 µM. It also gave a GI50 (MDA-MB-435) of over 100 µM, a TGI (MDA-MB-435) of over 100 µM and a GI50 (SF-268 CNS) of over 100 µM. The TGI (SF-268 CNS) was over 100 µM, the GI50 (SK-MEL-28 melanoma) was over 100 µM and the TGI (SK-MEL-28 melanoma) was over 100 µM. The GI50 (UACC-257 melanoma) was over 100 µM, the TGI (UACC-257 melanoma) was over 100 µM and the GI50 (HT29 colon) was over 100 µM. For the same compound, the TGI (HT29 colon) was over 100 µM, the GI50 (MCF7 breast) was over 100 µM and the TGI (MCF7 breast) was over 100 µM. The GI50 (HCT-116 colon) was 80.7 µM, the TGI (HCT-116 colon) was over 100 µM and the GI50 (SF-295 CNS) was over 100 µM. For the same compound, the TGI (SF-295 CNS) was over 100 µM, the GI50 (SNB-19 CNS) was over 100 µM and the TGI (SNB-19 CNS) was over 100 µM. For the same compound, the GI50 (PC-3 prostate) was 38.9 µM, the TGI (PC-3 prostate) was over 100 µM and the GI50 (NCI/ADR-RES ovarian) was over 100 µM. It also gave a TGI (NCI/ADR-RES ovarian) of over 100 µM, a GI50 (IGROV1 ovarian) of over 100 µM and a TGI (IGROV1 ovarian) of over 100 µM. It also gave a GI50 (CCRF-CEM leukemia) of over 100 µM, a TGI (CCRF-CEM leukemia) of over 100 µM and a GI50 (HOP-62 NSCLC) of over 100 µM. The TGI (HOP-62 NSCLC) was over 100 µM, the GI50 (KM12 colon) was over 100 µM and the TGI (KM12 colon) was over 100 µM. It also gave a GI50 (NCI-H460 lung) of over 100 µM, a TGI (NCI-H460 lung) of over 100 µM and a GI50 (COLO 205 colon) of over 100 µM. It also gave a TGI (COLO 205 colon) of over 100 µM, a GI50 (UO-31 renal) of over 100 µM and a TGI (UO-31 renal) of over 100 µM. For the same compound, the GI50 (MALME-3M melanoma) was over 100 µM, the TGI (MALME-3M melanoma) was over 100 µM and the GI50 (UACC-62 melanoma) was over 100 µM. For the same compound, the TGI (UACC-62 melanoma) was over 100 µM, the GI50 (SNB-75 CNS) was over 100 µM and the TGI (SNB-75 CNS) was over 100 µM. For the same compound, the GI50 (M14 melanoma) was over 100 µM, the TGI (M14 melanoma) was over 100 µM and the GI50 (BT-549 breast) was over 100 µM. The TGI (BT-549 breast) was over 100 µM, the GI50 (NCI-H23 lung) was over 100 µM and the TGI (NCI-H23 lung) was over 100 µM. The GI50 (NCI-H522 lung) was 44.8 µM, the TGI (NCI-H522 lung) was over 100 µM and the GI50 (T-47D breast) was over 100 µM. It also gave a TGI (T-47D breast) of over 100 µM, a GI50 (NCI-H226 lung) of over 100 µM and a TGI (NCI-H226 lung) of over 100 µM. For the same compound, the GI50 (A498 renal) was over 100 µM and the TGI (A498 renal) was over 100 µM.

From PubChem BioAssay (NCI)
